Data set [1] can be described thus: Solubility in organic solvents. Type of data set: physicochemical. Conditions: for solubility: organic solvent or mixture.
Data set [2] deals with Granular cell cultures from mouse cerebellum exposed to Glu. Nature of the data set: Neuroprotective effect against excitotoxicity of Glu in primary neuronal cultures (cell survival, MTT). The format is cell-based. Conditions: 24 h. On the procedure:
In vitro evaluation of the neuroprotective effect against excitotoxicity of Excitatory Amino Acids in primary neuronal cultures of the following compounds was carried out:
The compounds under evaluation, referred to as a, b, c, and d, were solubilized in DMSO and culture medium to obtain concentrations of 100 μM (4% DMSO) and 60 μM (3% DMSO) and added to the culture mediums according to different treatment schedules in order to determine the time-effect relationship vs. the incubation time and the exposure to the neurotoxic stimulus.
Granular cell cultures were obtained from postnatal day 8-9 mouse Balb-6 cerebellum. The cells were suspended in EBM+2 mM L-glutamine, 100 U/ml penicillin, […], 25 mM KCl and 10% fetal calf serum, plated on polylysine substrate, cultured for 8-10 days and then exposed to Glu 500 μM at room temperature for 5 min. The compounds being evaluated were added to the cultures at the same time of exposure, soon after exposure or 15 min after exposure to Glu, and cultured for 60 minutes; cultures were then washed and brought back to the original medium. The number of survived cells was evaluated by […] method (MTT) 24 hours after excitotoxic stimulation.

Data set [3] can be described thus: Solubility in water. The format is physicochemical.
[4] abbreviates: A: compound added at the same time of exposure to Glu (500 μM, 5 min), 60 μM, % of control values, average of three tests, Glu alone 44, read-out: survived cells (%), treatment A, 60 μM.
The mark [5] stands for this setting: A: compound added at the same time of exposure to Glu (500 μM, 5 min), % of control values, average of three tests, Glu alone 40, read-out: survived cells (%), treatment A, 100 μM.
Setting [6] is: B: compound added soon after exposure to Glu (500 μM, 5 min), % of control values, average of three tests, Glu alone 40, read-out: survived cells (%), treatment B, 100 μM.
The mark [7] stands for this setting: C: compound added 15 min after exposure to Glu (500 μM, 5 min), 60 μM, % of control values, average of three tests, Glu alone 44, read-out: survived cells (%), treatment C, 60 μM.
Setting [8] is: C: compound added 15 min after exposure to Glu (500 μM, 5 min), % of control values, average of three tests, Glu alone 40, read-out: survived cells (%), treatment C, 100 μM.
The mark [9] stands for this setting: n-octanol, read-out: solubility in n-octanol.
Where [10] appears, read: dmso, read-out: solubility in DMSO.
The mark [11] stands for this setting: aqueous buffer, 50 mM phosphate buffer, pH 7.4, NaCl 0.9%, read-out: solubility in water: 50 mM phosphate buffer.

Structures are written as SMILES. Structures can show the parent of a compound that is named as a salt. Where two headings read alike, the source gives them in different places.

Consider `CCCCCCCCCCCCCCCC(=O)NCCO` [Example 1, N-(2-Hydroxyethyl)-Palmitoylamide], for which, in data set [1], the “solubility in organic solvents” value is “hot methanol, CH3 Cl, DMSO”. The viability at 60 µM in data set [2] (setting [4]) is 86%; in data set [2] (setting [7]), 101%. Further, the results for the viability at 100 µM in data set [2] (setting [5]), in data set [2] (setting [6]) and in data set [2] (setting [8]) were 67%, 84% and 76%, respectively. The “solubility in water” value in data set [3] (water) is on record as “insoluble”.
Take `CCCCCCCCCCCCCCCC(=O)NCCOC(C)=O` [Example 2, N-(2-Acetoxyethyl)-Palmitoylamide]: in data set [1] (setting [9]), the solubility (as a rule, the dissolved amount per volume that the medium holds) is over 5000 µg/mL. The “solubility in water” value in data set [3] (water) is listed as “poorly soluble”.
Regarding `CC(=O)OCCNC(=O)c1ccccc1` [Example 3, N-(2-Acetoxyethyl)-Benzoylamide], the solubility in data set [1] (setting [10]) and in data set [1] (setting [9]) was over 10000 µg/mL throughout. For the same compound, the “solubility in water” value in data set [3] (water) is listed as “poorly soluble”.
In the case of `CC(=O)OCCNC(=O)/C=C/C(=O)NCCOC(C)=O` [Example 4, N,N'-Bis(2-Acetoxyethyl)-Fumaroylamide], the solubility in data set [1] (setting [10]) is over 10000 µg/mL. In addition, the “solubility in water” value in data set [3] (water) was “poorly soluble”.
For `CCCCCCCCCCCCCCCC(=O)NCCOP(=O)(O)O` [Example 5, N-Palmitoylethanolamide Phosphate], the values for the solubility in data set [1] (setting [10]) and in data set [3] (setting [11]) were over 10000 µg/mL and over 1000 µg/mL, respectively. Moreover, the viability at 60 µM in data set [2] (setting [4]) was found to be 68%; in data set [2] (B: compound added soon after exposure to Glu (500 μM, 5 min), 60 μM, % of control values, average of three tests, Glu alone 44, read-out: survived cells (%), treatment B, 60 μM), 99%; in data set [2] (setting [7]) it was 90%. For the same compound, the “solubility in water” value in data set [3] (water) is recorded as “poorly soluble”.
On to `O=C(/C=C/CCCCCCCCC(=O)NCCOP(=O)(O)O)NCCOP(=O)(O)O` [Example 6, N,N'-Bis(2-Hydroxyethyl)-Dodecenediamide Diphosphate Disodium Salt], for which the solubility in data set [1] (DMSO, product in acid form, read-out: solubility in DMSO (product in acid form)) is over 10000 µg/mL; in data set [3] (water, read-out: solubility in water) it was over 10000 µg/mL.
On to `CCCCCCCCCCCCCCCC(=O)NCCOC(=O)CCC(=O)O` [Example 7, N-(2-Hydroxyethyl)-Palmitoylamide Succinate Acid], for which the solubility in data set [1] (setting [10]) is over 5000 µg/mL; in data set [3] (water, as potassium salt, read-out: solubility in water as potassium salt), over 1000 µg/mL. Also, the “solubility in water” value in data set [3] (water) is “poorly soluble”.
Regarding `O=C(O)CCC(=O)OCCNC(=O)C=CCCCCCCCCC(=O)NCCOC(=O)CCC(=O)O` [Example 8, N,N'-Bis(2-Hydroxyethyl)-Dodecenediamide Disuccinate Acid], the solubility is over 10000 µg/mL in data set [1] (setting [10]) and over 1000 µg/mL in data set [3] (setting [11]). In addition, the “solubility in water” value in data set [3] (water) is recorded as “poorly soluble”.
In the case of `O=C(CCCCCCCC(=O)NCCO)NCCO` [Example 9, N,N'-Bis-(2-Hydroxyethyl)-Nonandiamide], the solubility in data set [1] (setting [10]) was over 10000 µg/mL. In addition, the viability at 100 µM in data set [2] (setting [5]) is 68%; in data set [2] (setting [6]), 92%; in data set [2] (setting [8]), 87%.
As for `CCCCC/C=C\C/C=C\C/C=C\C/C=C\CCCC(=O)NCCO` [Example 10, N-(2-Hydroxyethyl)-Arachidonamide], the solubility was over 10000 µg/mL in data set [1] (setting [10]) and over 10000 µg/mL in data set [1] (ethanol, read-out: solubility in ethanol). Also, the viability at 60 µM in data set [2] (read-out: survived cells (%), treatment A, 60 μM) came to 95%. Besides, in data set [3] (water), the “solubility in water” value is listed as “poorly soluble”.
Regarding `N[C@@H](CCC(=O)O)C(=O)O` [Glu, glutamic acid, reference compound], the viability at 500 µM in data set [2] (read-out: survived cells (%), Glu alone, 60 μM column) came out at 44%; in data set [2] (read-out: survived cells (%), Glu alone, 100 μM column), 40%.

The record behind these values is US5925678A, “Use of N-acyl derivatives of aminoalcohols in the manufacture of a medicament for practicing neuroprotective action in neuropathological states connected with excitotoxicity” (Lifegroup S.P.A., priority 1994, dated 1999).
